Experimental data from patent US11667701B2, “Anti-PfRH5 antibodies and antigen-binding fragments thereof” (priority 2018, dated 2023).

Tested on: Plasmodium falciparum strain 3D7
Test: Growth inhibition assay with or without chloroquine, strain 3D7 (Example 3)
Assay type: cell-based
Description: Each P. falciparum strain (BEI Resources) was first synchronized with 5% D-sorbitol following standard protocols at 3-5% hematocrit and 1-2% parasitaemia 20-24 hours prior to the start of the assay. Infected human erythrocytes were prepared at a starting parasitaemia of 0.4-0.7% and 2% hematocrit. Infected erythrocytes were combined with PfRH5-specific or control antibodies starting at a concentration of 666.67 nM with 1:5 serial dilution for each IgG1 antibody and chloroquine at one of two concentrations, 4.91 or 6.58 nM. […] The parasites were grown for 40-48 h until the schizont stage was reached (one complete life cycle). Parasite growth was stopped with three washes of cold PBS. Final parasitaemia was determined by measuring the parasite lactate dehydrogenase (LDH) activity. Percent growth inhibition was expressed relative to uninfected erythrocytes.

Structure (SMILES): CCN(CC)CCCC(C)Nc1ccnc2cc(Cl)ccc12 (stereo not shown) [chloroquine, reference compound]
- 1025 of chloroquine with the susceptible 3D7 strain: 4.91 nM
